# Tests used:
# Test in all cases: cells
# Ramos-2G6-4C10 = type: functional, cell-based, Homo sapiens; conditions: Homo sapiens, Ramos-2G6-4C10;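 further: growth inhibition of the cell line, measured by a cell viability read-out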
# Description: SANGER: Inhibition of human Ramos-2G6-4C10 cell growth in a cell viability assay.
# MZ7-mel = type: functional, cell-based, Homo sapiens; conditions: Homo sapiens, MZ7-mel;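 further: growth inhibition of human MZ7-mel cells, measured by a cell viability assay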
# Description: SANGER: Inhibition of human MZ7-mel cell growth in a cell viability assay.
# KE-37 = type: functional, cell-based, Homo sapiens; conditions: Homo sapiens, KE-37;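 further: growth inhibition of KE-37 cells, read out with a cell viability assay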
# Description: SANGER: Inhibition of human KE-37 cell growth in a cell viability assay.
# NOS-1 = type: functional, cell-based, Homo sapiens; conditions: Homo sapiens, NOS-1;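 further: growth inhibition of the human NOS-1 cell line, read out with a cell viability assay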
# Description: SANGER: Inhibition of human NOS-1 cell growth in a cell viability assay.
# HCC2157 = type: functional, cell-based, Homo sapiens; conditions: Homo sapiens, HCC2157;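 further: growth inhibition of the cancer cell line, read out as cell viability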
# Description: SANGER: Inhibition of human HCC2157 cell growth in a cell viability assay.
# SF-539 = type: functional, cell-based, Homo sapiens; conditions: Homo sapiens, SF-539;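 further: Read-out is a cell viability assay, with IC50 reflecting inhibition of cell growth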
# Description: SANGER: Inhibition of human SF539 cell growth in a cell viability assay.
# TE-11 = type: functional, cell-based; conditions: Homo sapiens;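 further: growth inhibition of human TE-11 cells, read out by a cell viability assay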
# Description: SANGER: Inhibition of human TE-11 cell growth in a cell viability assay.
# NH-12 = type: functional, cell-based, Homo sapiens; conditions: Homo sapiens, NH-12;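 further: growth inhibition of NH-12 cells, read out with a cell viability assay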
# Description: SANGER: Inhibition of human NH-12 cell growth in a cell viability assay.
# NOMO-1 = type: functional, cell-based, Homo sapiens; conditions: Homo sapiens, NOMO-1;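 further: growth inhibition of human NOMO-1 cells measured by a cell viability assay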
# Description: SANGER: Inhibition of human NOMO-1 cell growth in a cell viability assay.
# JVM-3 = type: functional, cell-based, Homo sapiens; conditions: Homo sapiens, JVM-3;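 further: growth inhibition of human JVM-3 cells, read out with a cell viability assay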
# Description: SANGER: Inhibition of human JVM-3 cell growth in a cell viability assay.
# ML-2 = type: functional, cell-based, Homo sapiens; conditions: Homo sapiens, ML-2;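 further: growth inhibition of ML-2 cells, measured with a cell viability readout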
# Description: SANGER: Inhibition of human ML-2 cell growth in a cell viability assay.
# MEG-01 = type: functional, cell-based, Homo sapiens; conditions: Homo sapiens, MEG-01;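 further: growth inhibition of MEG-01 cells, read out by a cell viability assay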
# Description: SANGER: Inhibition of human MEG-01 cell growth in a cell viability assay.
# BV-173 = type: functional, cell-based, Homo sapiens; conditions: Homo sapiens, BV-173
# Description: SANGER: Inhibition of human BV-173 cell growth in a cell viability assay.
# QIMR-WIL = type: functional, cell-based, Homo sapiens; conditions: Homo sapiens, QIMR-WIL;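 further: growth inhibition of QIMR-WIL cells, read out with a cell viability assay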
# Description: SANGER: Inhibition of human QIMR-WIL cell growth in a cell viability assay.
# OS-RC-2 = type: functional, cell-based, Homo sapiens; conditions: Homo sapiens, OS-RC-2;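 further: growth inhibition of human OS-RC-2 cells, measured by a cell viability assay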
# Description: SANGER: Inhibition of human OS-RC-2 cell growth in a cell viability assay.
# NCI-H1650 = type: functional, cell-based, Homo sapiens; conditions: Homo sapiens, NCI-H1650;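 further: growth inhibition of human NCI-H1650 cells measured by a cell viability assay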
# Description: SANGER: Inhibition of human NCI-H1650 cell growth in a cell viability assay.
# KGN = type: functional, cell-based, Homo sapiens; conditions: Homo sapiens, KGN;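 further: growth inhibition of KGN cells, read out with a cell viability assay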
# Description: SANGER: Inhibition of human KGN cell growth in a cell viability assay.
# TE-12 = type: functional, cell-based, Homo sapiens; conditions: Homo sapiens, TE-12;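 further: growth inhibition of TE-12 cells, read out by a cell viability assay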
# Description: SANGER: Inhibition of human TE-12 cell growth in a cell viability assay.
# KLE = type: functional, cell-based; conditions: Homo sapiens;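 further: growth inhibition of human KLE cells, read out with a cell viability assay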
# Description: SANGER: Inhibition of human KLE cell growth in a cell viability assay.
# GB-1 = type: functional, cell-based, Homo sapiens; conditions: Homo sapiens, GB-1;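 further: growth of GB-1 cells judged by a viability assay, IC50 marks the concentration inhibiting growth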
# Description: SANGER: Inhibition of human GB-1 cell growth in a cell viability assay.
# ES5 = type: functional, cell-based, Homo sapiens; conditions: Homo sapiens, ES5;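 further: growth inhibition of human ES5 cells, read out by a cell viability assay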
# Description: SANGER: Inhibition of human ES5 cell growth in a cell viability assay.
# DSH1 = type: functional, cell-based; conditions: Homo sapiens;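 further: growth inhibition of human DSH1 cells, measured with a cell viability readout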
# Description: SANGER: Inhibition of human DSH1 cell growth in a cell viability assay.
# NTERA-2-cl-D1 = type: functional, cell-based, Homo sapiens; conditions: Homo sapiens, NTERA-2-cl-D1;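 further: inhibition of cell growth, measured with a cell viability assay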
# Description: SANGER: Inhibition of human NTERA-S-cl-D1 cell growth in a cell viability assay.
# LU-134-A = type: functional, cell-based, Homo sapiens; conditions: Homo sapiens, LU-134-A
# Description: SANGER: Inhibition of human LU-134-A cell growth in a cell viability assay.
# KU812 cell line = type: functional, cell-based, Homo sapiens; conditions: Homo sapiens, KU812;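 further: growth inhibition of KU812 cells, read out with a cell viability assay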
# Description: SANGER: Inhibition of human KU812 cell growth in a cell viability assay.
# KARPAS-299 = type: functional, cell-based, Homo sapiens; conditions: Homo sapiens, KARPAS-299
# Description: SANGER: Inhibition of human KARPAS-299 cell growth in a cell viability assay.
# JVM-2 = type: functional, cell-based, Homo sapiens; conditions: Homo sapiens, JVM-2;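 further: growth inhibition of JVM-2 cells determined by a cell viability assay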
# Description: SANGER: Inhibition of human JVM-2 cell growth in a cell viability assay.
# LS-513 = type: functional, cell-based, Homo sapiens; conditions: Homo sapiens, LS-513
# Description: SANGER: Inhibition of human LS-513 cell growth in a cell viability assay.
# KG-1 = type: functional, cell-based, Homo sapiens; conditions: Homo sapiens, KG-1;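 further: growth inhibition of KG-1 cells, read out by a cell viability assay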
# Description: SANGER: Inhibition of human KG-1 cell growth in a cell viability assay.
# D-263MG = type: functional, cell-based, Homo sapiens; conditions: Homo sapiens, D-263MG
# Description: SANGER: Inhibition of human D-263MG cell growth in a cell viability assay.
# MHH-NB-11 = type: functional, cell-based, Homo sapiens; conditions: Homo sapiens, MHH-NB-11;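 further: growth inhibition of human MHH-NB-11 cells, read out by a cell viability assay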
# Description: SANGER: Inhibition of human MHH-NB-11 cell growth in a cell viability assay.
# SNU1 = type: functional, cell-based, Homo sapiens; conditions: Homo sapiens, SNU1;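 further: growth inhibition of human NCI-SNU-1 cells, measured with a cell viability assay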
# Description: SANGER: Inhibition of human NCI-SNU-1 cell growth in a cell viability assay.
# TE-9 = type: functional, cell-based, Homo sapiens; conditions: Homo sapiens, TE-9;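 further: cell growth inhibition, measured with a cell viability readout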
# Description: SANGER: Inhibition of human TE-9 cell growth in a cell viability assay.
# EW-13 = type: functional, cell-based, Homo sapiens; conditions: Homo sapiens, EW-13; read-out: IC50;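 further: growth inhibition of EW-13 cells, read out with a cell viability assay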
# Description: SANGER: Inhibition of human EW-13 cell growth in a cell viability assay.
# SW872 = type: functional, cell-based, Homo sapiens; conditions: Homo sapiens, SW872;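 further: growth inhibition of SW872 cells, read out by a viability assay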
# Description: SANGER: Inhibition of human SW872 cell growth in a cell viability assay.
# KINGS-1 = type: functional, cell-based, Homo sapiens; conditions: Homo sapiens, KINGS-1;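 further: cell viability assay measuring suppression of KINGS-1 cell growth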
# Description: SANGER: Inhibition of human KINGS-1 cell growth in a cell viability assay.
# CCRF-CEM = type: functional, cell-based, Homo sapiens; conditions: Homo sapiens, CCRF-CEM;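 further: inhibition of CCRF-CEM cell growth, measured by a cell viability assay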
# Description: SANGER: Inhibition of human CCRF-CEM cell growth in a cell viability assay.
# NCI-H747 = type: functional, cell-based, Homo sapiens; conditions: Homo sapiens, NCI-H747;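 further: growth inhibition of human NCI-H747 cells, read out by a cell viability assay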
# Description: SANGER: Inhibition of human NCI-H747 cell growth in a cell viability assay.
# HH = type: functional, cell-based, Homo sapiens; conditions: Homo sapiens, HH
# Description: SANGER: Inhibition of human HH cell growth in a cell viability assay.
# PSN1 = type: functional, cell-based, Homo sapiens; conditions: Homo sapiens, PSN1;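 further: suppression of growth of human PSN1 cells, read out by a cell viability assay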
# Description: SANGER: Inhibition of human PSN1 cell growth in a cell viability assay.
# ES7 = type: functional, cell-based, Homo sapiens; conditions: Homo sapiens, ES7;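 further: growth inhibition of cultured human ES7 cells, read out as cell viability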
# Description: SANGER: Inhibition of human ES7 cell growth in a cell viability assay.
# LOX IMVI = type: functional, cell-based, Homo sapiens; conditions: Homo sapiens, LOX IMVI
# Description: SANGER: Inhibition of human LOXIMVI cell growth in a cell viability assay.
# NCI-H226 = type: functional, cell-based, Homo sapiens; conditions: Homo sapiens, NCI-H226;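 further: cell viability read-out used to gauge growth inhibition of the cells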
# Description: SANGER: Inhibition of human NCI-H226 cell growth in a cell viability assay.
# COLO-320-HSR = type: functional, cell-based, Homo sapiens; conditions: Homo sapiens, COLO-320-HSR;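 further: growth inhibition of COLO-320-HSR cells, determined with a cell viability assay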
# Description: SANGER: Inhibition of human COLO-320-HSR cell growth in a cell viability assay.
# ES6 = type: functional, cell-based; conditions: Homo sapiens;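 further: growth inhibition of human ES6 cells, read out with a cell viability assay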
# Description: SANGER: Inhibition of human ES6 cell growth in a cell viability assay.
# Mo = type: functional, cell-based, Homo sapiens; conditions: Homo sapiens, Mo
# Description: SANGER: Inhibition of human Mo-T cell growth in a cell viability assay.
# ES8 = type: functional, cell-based, Homo sapiens; conditions: Homo sapiens, ES8;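 further: growth inhibition of human ES8 cells, read out with a cell viability assay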
# Description: SANGER: Inhibition of human ES8 cell growth in a cell viability assay.
# HL-60 = type: functional, cell-based, Homo sapiens; conditions: Homo sapiens, HL-60;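 further: growth inhibition of human HL-60 cells, read out with a cell viability assay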
# Description: SANGER: Inhibition of human HL-60 cell growth in a cell viability assay.
# LB996-RCC = type: functional, cell-based, Homo sapiens; conditions: Homo sapiens, LB996-RCC
# Description: SANGER: Inhibition of human LB996-RCC cell growth in a cell viability assay.
# 8-MG-BA = type: functional, cell-based, Homo sapiens; conditions: Homo sapiens, 8-MG-BA;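 further: growth inhibition of 8-MG-BA cells, read out with a cell viability assay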
# Description: SANGER: Inhibition of human 8-MG-BA cell growth in a cell viability assay.
smiles,measurement,setting,value
OC[C@H](Cc1ccccc1)Nc1nc(Oc2ccc3c(c2)CCC3)nc2c1ncn2Cc1ccc(-c2ccccc2)cc1,IC50,Ramos-2G6-4C10,7.65 µM
same,IC50,MZ7-mel,8.89 µM
same,IC50,KE-37,9.31 µM
same,IC50,NOS-1,> 10.2 µM
same,IC50,HCC2157,> 10.2 µM
same,IC50,SF-539,> 10.2 µM
same,IC50,TE-11,> 10.2 µM
same,IC50,NH-12,> 10.2 µM
same,IC50,NOMO-1,> 10.2 µM
same,IC50,JVM-3,> 10.2 µM
same,IC50,ML-2,> 10.2 µM
same,IC50,MEG-01,4.6 µM
same,IC50,BV-173,> 10.2 µM
same,IC50,QIMR-WIL,6.65 µM
same,IC50,OS-RC-2,> 10.2 µM
same,IC50,NCI-H1650,> 10.2 µM
same,IC50,KGN,> 10.2 µM
same,IC50,TE-12,> 10.2 µM
same,IC50,KLE,> 10.2 µM
same,IC50,GB-1,5.25 µM
same,IC50,ES5,> 10.2 µM
same,IC50,DSH1,6.82 µM
same,IC50,NTERA-2-cl-D1,> 10.2 µM
same,IC50,LU-134-A,> 10.2 µM
same,IC50,KU812 cell line,0.637 µM
same,IC50,KARPAS-299,> 10.2 µM
same,IC50,JVM-2,> 10.2 µM
same,IC50,LS-513,> 10.2 µM
same,IC50,KG-1,> 10.2 µM
same,IC50,D-263MG,> 10.2 µM
same,IC50,MHH-NB-11,> 10.2 µM
same,IC50,SNU1,> 10.2 µM
same,IC50,TE-9,> 10.2 µM
same,IC50,EW-13,0.413 µM
same,IC50,SW872,10.2 µM
same,IC50,KINGS-1,> 10.2 µM
same,IC50,CCRF-CEM,5.76 µM
same,IC50,NCI-H747,> 10.2 µM
same,IC50,HH,> 10.2 µM
same,IC50,PSN1,2.83 µM
same,IC50,ES7,> 10.2 µM
same,IC50,LOX IMVI,> 10.2 µM
same,IC50,NCI-H226,> 10.2 µM
same,IC50,COLO-320-HSR,> 10.2 µM
same,IC50,ES6,> 10.2 µM
same,IC50,Mo,> 10.2 µM
same,IC50,ES8,> 10.2 µM
same,IC50,HL-60,> 10.2 µM
same,IC50,LB996-RCC,> 10.2 µM
same,IC50,8-MG-BA,3.54 µM
NC(=O)c1cccc(-c2cc(Nc3ccc(OC(F)(F)F)cc3)ncn2)c1,IC50,Ramos-2G6-4C10,> 1.28 µM
same,IC50,MZ7-mel,> 1.28 µM
same,IC50,KE-37,> 1.28 µM
same,IC50,NOS-1,0.571 µM
same,IC50,HCC2157,> 1.28 µM
same,IC50,SF-539,> 1.28 µM
same,IC50,TE-11,> 1.28 µM
same,IC50,NH-12,> 1.28 µM
same,IC50,NOMO-1,> 1.28 µM
same,IC50,JVM-3,> 1.28 µM
same,IC50,ML-2,> 1.28 µM
same,IC50,MEG-01,0.503 µM
same,IC50,BV-173,0.286 µM
same,IC50,QIMR-WIL,> 1.28 µM
same,IC50,OS-RC-2,> 1.28 µM
same,IC50,NCI-H1650,> 1.28 µM
same,IC50,KGN,> 1.28 µM
same,IC50,TE-12,> 1.28 µM
same,IC50,KLE,> 1.28 µM
same,IC50,GB-1,> 1.28 µM
same,IC50,ES5,> 1.28 µM
same,IC50,DSH1,> 1.28 µM
same,IC50,NTERA-2-cl-D1,> 1.28 µM
same,IC50,LU-134-A,> 1.28 µM
same,IC50,KU812 cell line,> 1.28 µM
same,IC50,KARPAS-299,> 1.28 µM
same,IC50,JVM-2,> 1.28 µM
same,IC50,LS-513,> 1.28 µM
same,IC50,KG-1,> 1.28 µM
same,IC50,D-263MG,> 1.28 µM
same,IC50,MHH-NB-11,> 1.28 µM
same,IC50,SNU1,> 1.28 µM
same,IC50,TE-9,> 1.28 µM
same,IC50,EW-13,> 1.28 µM
same,IC50,SW872,> 1.28 µM
same,IC50,KINGS-1,> 1.28 µM
same,IC50,CCRF-CEM,> 1.28 µM
same,IC50,NCI-H747,> 1.28 µM
same,IC50,HH,> 1.28 µM
same,IC50,PSN1,> 1.28 µM
same,IC50,ES7,> 1.28 µM
same,IC50,LOX IMVI,> 1.28 µM
same,IC50,NCI-H226,> 1.28 µM
same,IC50,COLO-320-HSR,> 1.28 µM
same,IC50,ES6,> 1.28 µM
same,IC50,Mo,> 1.28 µM
same,IC50,ES8,> 1.28 µM
same,IC50,HL-60,> 1.28 µM
same,IC50,LB996-RCC,> 1.28 µM
same,IC50,8-MG-BA,> 1.28 µM
